Results reported in PMC4718940, “Preclinical studies of 5-fluoro-2′-deoxycytidine and tetrahydrouridine in pediatric brain tumors” (Journal of Neuro-Oncology, 2015).
Read-outs that look alike come from different tables or passages of the source.

Assays:
[1] = tested on: Mouse G3 MB Myc1 neurospheres; test: 72 h dose response, CellTiter-Glo, mouse G3 MB neurospheres; type: cell-based; settings: Mus musculus, Fig. 2a, read-out: EC50
Protocol: In the Discovery Phase, the initial studies included the screen of a library of 9 compounds against epigenetic regulators at a single concentration and a dose-response on G3 MB, EP, and CPC tumor cells, as well as HEPG2 and BJ (Fig. 1). The library and dose response studies are described in the Supplementary Material.
Briefly, cells (see Supplementary Table S2 for cell identity) were plated in 384-well plates (Corning) in 30 µL of supplemented neurobasal medium by using an automated plate filler (Wellmate, Matrix). After 24 hr, 28 nL of compound was transferred via pin tool, resulting in a final drug concentration of approximately 4 nM to 10 µM. After 72 hr of treatment, CellTiter-Glo reagent (Promega) was added, and the luminescence signal was measured using an automated Envision plate reader (Perkin-Elmer). Luminescence data were normalized by log10-transformation prior to calculating the percentage of inhibition using the following equation: 100 × (negative control mean − compound value)/(negative control mean − positive control mean). Our negative control represents cells treated with 0.1% DMSO with 0% inhibition. Cells treated with 35 µM cycloheximide (G3 MB tumor spheres) or 10 µM panobinostat (EP and CPC cells) were used as positive controls with 100% inhibition. The response of cells to the compounds were normalized to that of the positive controls present in each plate screened, shown in the Y axis of the dose-response curve. […] Unless otherwise reported, the y-axis for each dose response curve in the figures was independently normalized to the range from 0 to 1 and therefore reported as ‘relative growth inhibition’. High through put assay data were analyzed by using our in-house Robust Interpretation of Screening Experiments (RISE) application that was written in Pipeline Pilot (Accelrys, v. 8.5) and R (R Development Core Team).

[2] = tested on: Patient-derived xenograft of a human EP; test: 72 h dose response, CellTiter-Glo, human EP PDX cells; type: cell-based; settings: Fig. 2b
G3 MB (Myc1) cells = test: FdCyd wash-out experiment, G3 MB; type: cell-based; settings: Mus musculus
Protocol: (§1) Myc1 and Myc2 G3 MB, EP, and CPC tumor cells (Supplementary Table 1) were plated in 96-well plates. After 24 h, 128 nL of a dilution series of a selected drug was transferred creating a final drug concentration of 0.5–9.3 µM. To assess the optimal exposure time, the drug was removed and replaced with fresh medium after 1, 3, 6, 10, 24, or 72 h (“wash-out”).
(§2) In both experiments, 72 h after drug addition to cells, we added 100 µL of CellTiter-Glo reagent (Promega), and we read the luminescence signal. Data analysis used GraphPad Prism software (Version 5.04).

[3] = In vitro plasma protein binding; type: in vitro ADME; settings: data not shown, read-out: fu,p (unbound fraction, plasma protein)
G3 MB tumors = test: In vivo proliferation, Ki67 immunohistochemistry, G3 MB
EP cells = test: Effect of deoxycytidine on FdCyd efficacy, 72 h, CellTiter-Glo; type: cell-based; settings: Mus musculus; FdCyd alone, 72 h exposure
Protocol: To test the effect of deoxycytidine on FdCyd efficacy, EP cells were plated in 96 well plates. After 24 h, FdCyd was added at final concentrations ranging from 0.1 nM to 50 μM alone or together with fixed concentration of deoxycytidine (Sigma) of 0.0122, 0.195, 6.25 or 100 μM.
as §2

[4] = tested on: Patient-derived xenograft of a human G3 medulloblastoma, TB-12-5950; test: 72 h dose response, CellTiter-Glo, human G3 MB PDX cells; type: cell-based; settings: Fig. 2b
CPC tumors [5] = test: In vivo proliferation, Ki67 immunohistochemistry, CPC
CPC tumors [6] = test: In vivo apoptosis, Caspase 3 immunohistochemistry, CPC
[7] = Plasma pharmacokinetics in non-tumor-bearing CD1 nude mice; type: in vivo, mouse; settings: for AUC(0-inf): read-out: plasma exposure (AUC0-Inf), mean ± SD
Protocol: Once a drug passed the Discovery Phase it was moved to the Pre-Clinical Phase, which included PK and PD studies (Fig. 1). The details of the plasma PK and cerebral microdialysis studies are provided in the Supplemental Materials.
An initial, detailed plasma PK study was performed in non–tumor-bearing CD1 nude mice to define drug disposition in our mouse model of interest, determine the plasma systemic exposure, and when possible, to compare the systemic exposure in the mouse with that achievable in patients at clinically relevant dosages. Dosing solutions were prepared in 5% dextrose for injection at concentrations providing a standard final dosing volume of 10 mL/kg (i.e., 2.5 mg/mL FdCyd and 10 mg/mL THU). Plasma samples were separated by centrifugation and stored at −80°C until analysis using a sensitive and specific liquid chromatography–tandem mass spectrometry (LC-MS/MS) method to determine FdCyd concentrations. Plasma samples were collected by using a sparse sampling design in which 2 - 3 blood samples per mouse were collected in tubes containing zebularine (final concentration in blood sample, 1 mg/mL) to inhibit cytidine deaminase activity in vitro.
An appropriate pharmacokinetic model was fit to the observed concentration-time data obtained from the initial PK studies (IP and IV administration) by using non-linear mixed-effect modeling (NONMEM 7.2, ICON Development Solutions). Using D-optimality implemented in ADAPT 5, we use the data from the plasma pharmacokinetic study to define a pharmacokinetic limited sampling model (LSM), which will be used in subsequent microdialysis studies.

CPC cells = test: FdCyd wash-out experiment, CPC; type: cell-based; settings: Mus musculus
Protocol: as §1, §2

HEPG2 cells = test: FdCyd growth inhibition, HEPG2 control cells; type: cell-based, human; settings: Fig. 2c
EP tumors = test: In vivo proliferation, Ki67 immunohistochemistry, EP
[8] = 1 h exposure then wash-out, read at 72 h, read-out: EC50 after 1 h FdCyd exposure
[9] = 72 h, wash-out, 1st of 4 values listed for the remaining time points (3, 6, 10, 24, 72 h), read-out: EC50, longer exposure
[10] = 72 h, wash-out, 2nd of 4 values listed for the remaining time points (3, 6, 10, 24, 72 h), read-out: EC50, longer exposure
[11] = 72 h, wash-out, 3rd of 4 values listed for the remaining time points (3, 6, 10, 24, 72 h), read-out: EC50, longer exposure
[12] = 72 h, wash-out, 4th of 4 values listed for the remaining time points (3, 6, 10, 24, 72 h), read-out: EC50, longer exposure

EC50 (G3 MB (Myc1) cells; [8]): 8 ± 2 nM | EC50 (G3 MB (Myc1) cells; [9]): 5 nM | EC50 (G3 MB (Myc1) cells; [10]): 4 nM | EC50 (G3 MB (Myc1) cells; [11]): 2.3 nM | EC50 (G3 MB (Myc1) cells; [12]): 1 nM | fraction unbound [3]: ~1 | EC50 [4]: 1 nM | FdCyd exposure in mice relative to humans ([7]; CD1 nude mice 25 mg/kg vs humans at RP2D 100 mg/m^2, human PK ref 26): approximately 4 times higher | AUC(0-inf) ([7]; CD1 nude, mouse, plasma, FdCyd 25 mg/kg with THU 100 mg/kg, IP): 112 ± 6.55 µM·h | AUC(0-inf) ([7]; CD1 nude, mouse, plasma, FdCyd 25 mg/kg with THU 100 mg/kg, IV): 114 ± 4.77 µM·h | clearance ([7]; CD1 nude, mouse, plasma, FdCyd 25 mg/kg with THU 100 mg/kg, NONMEM, IV and IP data, read-out: systemic clearance, population mean (standard error of estimation) (converted)): 15 mL/min/kg | Vd ([7]; CD1 nude, mouse, plasma, FdCyd 25 mg/kg with THU 100 mg/kg, NONMEM, IV and IP data, read-out: volume of distribution, population mean (standard error of estimation)): 0.62 L/kg | murine plasma exposure compared with RP2D in humans ([7]; IP 6 mg/kg FdCyd with 100 mg/kg THU, confirmatory PK study): comparable | EC50 (CPC cells; [8]): 63 ± 28 nM | EC50 (CPC cells; [9]): 58 nM | EC50 (CPC cells; [10]): 44 nM | EC50 (CPC cells; [11]): 31 nM | EC50 (CPC cells; [12]): 1 nM
Structure (SMILES): Nc1nc(=O)n([C@H]2C[C@H](O)[C@@H](CO)O2)cc1F [FdCyd, 5-fluoro-2′-deoxycytidine]
EC50 [1]: 1.7 nM | EC50 [2]: 8.3 nM | Ki67 % of positive cells (G3 MB tumors; 3 hr after IP injection of FdCyd + THU, vehicle 87.77): 84.97% | Ki67 % of positive cells (G3 MB tumors; 8 hr after IP injection of FdCyd + THU, vehicle 78.11): 76.50% | Ki67 % of positive cells (G3 MB tumors; 24 hr after IP injection of FdCyd + THU, vehicle 85.15): 77.15% | EC50 (EP cells): 50 nM | Ki67 % of positive cells (CPC tumors [5]; 3 hr after IP injection of FdCyd + THU, vehicle 59.03): 47.82% | Ki67 % of positive cells (CPC tumors [5]; 8 hr after IP injection of FdCyd + THU, vehicle 62.25): 23.4% | Ki67 % of positive cells (CPC tumors [5]; 24 hr after IP injection of FdCyd + THU, vehicle 53.18): 61.3% | Caspase-3 % of positive cells (CPC tumors [6]; 3 hr after IP injection of FdCyd + THU, vehicle 3.963): 10.63% | Caspase-3 % of positive cells (CPC tumors [6]; 8 hr after IP injection of FdCyd + THU, vehicle 4.917): 2.297% | Caspase-3 % of positive cells (CPC tumors [6]; 24 hr after IP injection of FdCyd + THU, vehicle 3.493): 6.797% | sensitivity to FdCyd (growth inhibition) (HEPG2 cells): not | Ki67 % of positive cells (EP tumors; 3 hr after IP injection of FdCyd + THU, vehicle 81.79): 77.06% | Ki67 % of positive cells (EP tumors; 8 hr after IP injection of FdCyd + THU, vehicle 80.10): 72.88% | Ki67 % of positive cells (EP tumors; 24 hr after IP injection of FdCyd + THU, vehicle 68.41): 72.62%
